Test results: patent US20250051375A1, “ANTI-HIV COMPOUNDS” (Gilead Sciences, Inc., priority 2023, published 2025)
≈ marks a conversion by molar mass, not a printed value. Read-outs that look alike come from different tables or passages of the source.

How the values were obtained:
HIV-1 IIIB strain = test: MT-4 HIV Wild Type Virus Infection Assay (IIIB Virus); format: cell-based; settings: Human immunodeficiency virus 1, IIIB, MT4, 120 h, MT-4 cells acutely infected with HIV-1 IIIB, 5 day incubation, Cell-titer glo
Method: Test compounds and controls were serially diluted and spotted in replicate into 384 well black assay plates via acoustic transfer (Echo). MT-4 cells were grown in batch, centrifuged and resuspended into fresh CCM media (RPMI w/10% FBS, 1% PS) at 2×10^6 cells/ml. MT-4 cells were acutely infected with HIV-1 IIIB strain. The size of each infection mix was scaled by the number of sample plates to be tested. Each infection mix was transferred into 5 mL closed tubes and nutated rapidly on a shaker at 37° C. incubator for 1 hour. The infection mixes were then diluted 25× in fresh cell culture media and then added to assay plates at 40 μL per well using a ViaFlo 384 pipettor. After 5 day incubation at 37° C. in a CO2 incubator, assay plates were processed with Cell-titer glo reagent using a ViaFlo 384 with an addition/mixing program. Plates were read immediately on Envision reader. Assay signals were plotted and dose response curves generated to determine individual compound EC50s.

PBS Stability Assay = format: physicochemical; settings: buffer, pH 7.4, 2 μM, phosphate buffered saline pH 7.4; read-out: PBS T½
Method: Reagents. Stock solutions of test compounds in dimethyl sulfoxide (DMSO) having a final concentration of 10 mM were prepared and used in all experiments. Sekisui XenoTech (Kansas City, KS) provided pooled intestinal S9 fractions. All other chemicals were purchased from Sigma-Aldrich (St. Louis, MO) or VWR (West Chester, PA). Internal Standard/Quench (IS/Q) used to stop reactions was 100 nM labetalol in (by volume) formic acid (1%) and acetonitrile (99%).
PBS Stability Assay: For each test compound, an aliquot of the test compound was added to phosphate buffered saline (137 mM NaCl, 2.7 mM KCl, 10 mM phosphate buffer), pH 7.4. The incubation was initiated by the addition of the test compound to PBS to a final concentration of 2 μM. At 0, 10, 20, 30, 60 and 120 min, 25 μL aliquots of the incubation mixture were transferred to plates containing 225 μl of IS/Q solution. After quenching, the plates were centrifuged at 3000×g for 30 minutes. 150 μL aliquots of each supernatant were transferred to new plates and 150 μL water was added. Aliquots (10 μL) of the prepared samples were analyzed on a Thermo Q-Exactive mass spectrometer as described below.
Liquid Chromatography-Mass Spectrometry: Quantification of test compounds and control substrate was performed by analyte/internal standard peak area ratio (PAR) values measured on a Thermo Q-Exactive mass spectrometer coupled to a Dionex UltiMate 3000 HPLC with a Leap Technologies HTC PAL autosampler. The column used for analysis was a Thermo Scientific Hypersil GOLD (1.9 μm particle size, 50×2.1 mm). Mobile phase A consisted of 0.1% (v/v) formic acid in water. Mobile phase B consisted of 0.1% (v/v) formic acid in acetonitrile. Elution of analytes was achieved by a series of linear gradients varying the proportions of A and B. The mass spectrometer was calibrated on a weekly basis and mass tolerance of 5 ppm was used.
Data Analysis. Metabolic stabilities were determined by measuring the rates of disappearance of test compound and positive control substrate. Data (% of substrate remaining) were plotted on a semi-log scale and fitted using an exponential decline model:
where • Ct% of substrate remaining at time=t • C0% of substrate remaining at time=0 • t time • T½ half-life • The Half-life (T½) is determined by the following equation:
[formula] • Assuming a first-order reaction, the slope (k) is extrapolated from the aforementioned plotted data.

[1] = target: bovine intestinal alkaline phosphatase (Bos taurus (Bovine), UniProt P19111); test: BiALP: conversion by bovine intestinal alkaline phosphatase; format: in vitro ADME; settings: 2 μM substrate, 100 ng/mL iALP, Tris pH 7.8, 37° C., 60 minutes; for [Intermediate A] or [Amprenavir]: parent formed
Chain of bovine intestinal alkaline phosphatase (P19111 20-506): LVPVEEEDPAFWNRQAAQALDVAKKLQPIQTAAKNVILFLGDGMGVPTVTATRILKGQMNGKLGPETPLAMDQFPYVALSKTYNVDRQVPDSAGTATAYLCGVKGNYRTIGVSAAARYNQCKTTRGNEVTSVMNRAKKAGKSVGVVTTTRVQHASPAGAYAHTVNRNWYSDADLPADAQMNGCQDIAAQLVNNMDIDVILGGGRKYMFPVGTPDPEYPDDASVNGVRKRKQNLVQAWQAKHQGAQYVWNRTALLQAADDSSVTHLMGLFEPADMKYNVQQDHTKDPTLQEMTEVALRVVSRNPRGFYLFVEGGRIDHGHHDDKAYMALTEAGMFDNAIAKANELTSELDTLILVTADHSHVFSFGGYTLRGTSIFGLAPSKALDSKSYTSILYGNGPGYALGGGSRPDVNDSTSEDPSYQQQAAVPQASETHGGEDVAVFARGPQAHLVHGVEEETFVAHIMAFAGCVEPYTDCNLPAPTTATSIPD
Method: Fosamprenavir and its parent compound (amprenavir) were purchased from Millipore Sigma (St. Louis, MO). Test compounds, Intermediate A, fosamprenavir, and amprenavir were each separately dissolved in dimethyl sulfoxide (DMSO) at a concentration of 10 mM to form stock solutions.
All other chemicals were purchased from Millipore Sigma (St. Louis, MO) and Thermo Fisher Scientific (Waltham, MA). […] Internal Standard/Quench (IS/Q) was 100 nM labetalol in 99:1 (v/v) acetonitrile/formic acid.
Incubations were performed with Tris buffer alone (0.1 M Tris-HCl pH 7.8 containing 1 mM MgCl2 and 1 mM ZnCl2) or the same Tris buffer further containing 100 ng/mL iALP (0.01 units/mL). Triplicate 100 μL aliquots of Tris buffer±iALP were warmed to 37° C. and the reactions were initiated by the addition of the test compound or fosamprenavir to obtain final substrate concentrations of 2 μM. Incubations were then continued at 37° C. At 60 minutes, reactions were terminated by the addition of 200 μl of IS/Q and mixed by pipette. […] Aliquots (150 μL) of the supernatants were transferred to fresh plates containing 150 μL of water. Aliquots (15 μL) of the diluted supernatants were analyzed by mass spectrometry as described below.
Quantification of the test compounds and fosamprenavir was performed by analyte/internal standard peak area ratios (PARs) with comparison to 2 μM Intermediate A and amprenavir, respectively. The LC instrumentation consisted of a Thermo Scientific Vanquish pump and a Thermo Hypersil Gold column (1.9 μm particle size, 2.1×50 mm). […] The MS instrument was a Thermo Q Exactive™ Plus operating in positive ionization mode with mass tolerance of 5 ppm and calibrated on a twice weekly basis.

Solubility in FaSSIF = settings: 23 °C, pH 6.5, fassif, thermodynamic from solid
Method: Buffer Preparation: Fasted State Simulated Intestinal Fluid (FaSSIF): Simulated Intestinal Fluid (SIF) powder containing a complex of Taurocholate and Lecithin (4:1 molar ratio) was obtained from Biorelevant. 0.056 g of SIF powder was added to 25 mL of buffer, adjusted to pH 6.5, containing 0.011 g of NaOH (pellets), 0.099 g of NaH2PO4 (monohydrate), and 0.155 g of NaCl. The buffer was prepared with HPLC H2O. The SIE powder was stirred until completely dissolved and allowed to stand for 2 hours.
Test Compounds: Each test compound was placed in a vial containing approximately 7 mg of material. Aliquots were weighed out for each assay media at each time point to be analyzed. The buffer was added to each vial such that the final dose concentration of 5 mg/mL was achieved. Samples were then vortexed for 5-10 seconds.
The plate was sealed with a pierceable heat seal and analyzed by HPLC-UV.

| SMILES | [Compound] [1] [nM] | EC50 (HIV-1 IIIB strain) [nM] | solubility at 2 h (Solubility in FaSSIF) [µg/mL] | also measured |
| --- | --- | --- | --- | --- |
| COC(=O)N[C@H](C(=O)N[C@@H](Cc1ccc(C#Cc2cnc(N3CC4CCC(C3)N4C3COC3)nc2)cc1)[C@H](CN(Cc1c(F)cc(-c2ccn(C(F)F)n2)cc1F)NC(=O)[C@@H](NC(=O)OC)C(C)(C)C(F)(F)F)OC(=O)OCOC(=O)CC(C)(C)c1c(C)cc(C)cc1OP(=O)(O)O)C(C)(C)C(F)(F)F [Example 12] |  |  |  | EC50 (HIV-1 IIIB strain; read-out: EC50): 23.4 nM; half-life at 2 μM (PBS Stability Assay): 4.92 h |
| COC(=O)N[C@H](C(=O)N[C@@H](Cc1ccc(C#Cc2ccc(N3CC4CCC(C3)N4C3COC3)nc2)cc1)[C@H](CN(Cc1c(F)cc(-c2ccn(C(F)F)n2)cc1F)NC(=O)[C@@H](NC(=O)OC)C(C)(C)C(F)(F)F)OC(=O)CC(C)(C)c1c(CC(=O)NC(CC(=O)O)C(=O)O)cc(C)cc1CP(=O)(O)O)C(C)(C)C(F)(F)F (stereo partly shown) [Example 23] | 2107.1 |  |  |  |
| COC(=O)N[C@H](C(=O)N[C@@H](Cc1ccc(C#Cc2cnc(N3CC4CCC(C3)N4C3COC3)nc2)cc1)[C@H](CN(Cc1c(F)cc(-c2ccn(C(F)F)n2)cc1F)NC(=O)[C@@H](NC(=O)OC)C(C)(C)C(F)(F)F)OC(=O)CC(C)(C)c1c(CC(=O)N([C@H](C)C(=O)O)S(=O)(=O)O)cc(C)cc1OP(=O)(O)O)C(C)(C)C(F)(F)F [Example 32] | 1435.5 |  |  |  |
| COC(=O)N[C@H](C(=O)N[C@@H](Cc1ccc(C#Cc2cnc(N3CC4CCC(C3)N4C3COC3)nc2)cc1)[C@H](CN(Cc1c(F)cc(-c2ccn(C(F)F)n2)cc1F)NC(=O)[C@@H](NC(=O)OC)C(C)(C)C(F)(F)F)OC(=O)CC(C)(C)c1c(CC(=O)N([C@H](C)C(=O)O)S(=O)(=O)O)cccc1OP(=O)(O)O)C(C)(C)C(F)(F)F [Example 39] | 1310.3 |  |  |  |
| COC(=O)N[C@H](C(=O)N[C@@H](Cc1ccc(C#Cc2cnc(N3CC4CCC(C3)N4C3COC3)nc2)cc1)[C@H](CN(Cc1c(F)cc(-c2ccn(C(F)F)n2)cc1F)NC(=O)[C@@H](NC(=O)OC)C(C)(C)C(F)(F)F)OC(=O)OCOC(=O)CC(C)(C)c1c(CC(=O)N2CCN(CC(=O)O)CC2)cc(C)cc1OP(=O)(O)O)C(C)(C)C(F)(F)F [Example 77] | 2259 | 8.3 | 2760 (≈ 1640 µM) |  |
| COC(=O)N[C@H](C(=O)N[C@@H](Cc1ccc(C#Cc2cnc(N3CC4CCC(C3)N4C3COC3)nc2)cc1)[C@H](CN(Cc1c(F)cc(-c2ccn(C(F)F)n2)cc1F)NC(=O)[C@@H](NC(=O)OC)C(C)(C)C(F)(F)F)OC(=O)OCOC(=O)CC(C)(C)c1c(CC(=O)N2CCCC2C(=O)O)cc(C)cc1OP(=O)(O)O)C(C)(C)C(F)(F)F (stereo partly shown) [Example 78] | 2070.6 | 3.1 | 4390 (≈ 2650 µM) |  |
| COC(=O)N[C@H](C(=O)N[C@@H](Cc1ccc(C#Cc2cnc(N3CC4CCC(C3)N4C3COC3)nc2)cc1)[C@H](CN(Cc1c(F)cc(-c2ccn(C(F)F)n2)cc1F)NC(=O)[C@@H](NC(=O)OC)C(C)(C)C(F)(F)F)OC(=O)CC(C)(C)c1c(CC(=O)N2CCN(S(C)(=O)=O)CC2)cc(C)cc1OP(=O)(O)O)C(C)(C)C(F)(F)F [Example 80, (5S,10S,11S,14S)-8-(4-(1-(difluoromethyl)-1H-pyrazol-3-yl)-2,6-difluorobenzyl)-11-(4-((2-(8-(oxetan-3-yl)-3,8-diazabicyclo[3.2.1]octan-3-yl)pyrimidin-5-yl)ethynyl)benzyl)-3,6,13,16-tetraoxo-5,14-bis(1,1,1-trifluoro-2-methylpropan-2-yl)-2,17-dioxa-4,7,8,12,15-pentaazaoctadecan-10-yl 3-methyl-3-(4-methyl-2-(2-(4-(methylsulfonyl)piperazin-1-yl)-2-oxoethyl)-6-(phosphonooxy)phenyl)butanoate] | 2507.9 | 735 | < 1000 | biALP Intermediate A or [Amprenavir] (% of total) [1]: 0 % of total; [Intermediate A] or [Amprenavir] [1]: 0 nM |
| COC(=O)N[C@H](C(=O)N[C@@H](Cc1ccc(C#Cc2cnc(N3CC4CCC(C3)N4C3COC3)nc2)cc1)[C@H](CN(Cc1c(F)cc(-c2ccn(C(F)F)n2)cc1F)NC(=O)[C@@H](NC(=O)OC)C(C)(C)C(F)(F)F)OC(=O)CC(C)(C)c1c(CC(=O)N2CCN(S(N)(=O)=O)CC2)cc(C)cc1OP(=O)(O)O)C(C)(C)C(F)(F)F [Example 81, (5S,10S,11S,14S)-8-(4-(1-(difluoromethyl)-1H-pyrazol-3-yl)-2,6-difluorobenzyl)-11-(4-((2-(8-(oxetan-3-yl)-3,8-diazabicyclo[3.2.1]octan-3-yl)pyrimidin-5-yl)ethynyl)benzyl)-3,6,13,16-tetraoxo-5,14-bis(1,1,1-trifluoro-2-methylpropan-2-yl)-2,17-dioxa-4,7,8,12,15-pentaazaoctadecan-10-yl 3-methyl-3-(4-methyl-2-(2-oxo-2-(4-sulfamoylpiperazin-1-yl)ethyl)-6-(phosphonooxy)phenyl)butanoate] | 2385.2 | 627 | < 1000 | biALP Intermediate A or [Amprenavir] (% of total) [1]: 0 % of total; [Intermediate A] or [Amprenavir] [1]: 0 nM |
| CC(C)CN(C[C@@H](OP(=O)(O)O)[C@H](Cc1ccccc1)NC(=O)O[C@H]1CCOC1)S(=O)(=O)c1ccc(N)cc1 [Fosamprenavir, fosamprenavir, reference compound] | 1605 |  |  |  |
